Laboratory results taken from patent publication US3954726A, “Double salts of S-adenosil-L-methionine” (Bioresearch Limited, priority 1973, dated 1976).
Structures can show the parent of a compound that is named as a salt. Where two headings read alike, the source gives them in different places.

What was measured:
[1] = Stability with time at 45°C, dry state (percentage of SAM residue); conditions: same conditions as Table 1
From the text: (§3) The figures refer to the percentage of SAM residue after the times indicated:

[2] = Clinical: Parkinsons disease and Parkinsonisms, in association with Levodopa; assay type: in vivo, human
[3] = dry state
From the text: as §3

[4] = Acute toxicity (DL50) in the mouse; conditions: in vivo
From the text: In particular, the DL50 in the mouse is greater than 6 g/kg/os and 2.5 g/kg/i.p.

[5] = Toxicity, overall statement; conditions: in vivo
physchem [6] = assay type: physicochemical
rabbits = conditions: rabbit, in vivo
rats = conditions: rat, in vivo
rabbit [7] = assay: Local tolerability of intermuscular and intravenous injection; assay type: in vivo
man = assay: Tolerability in young volunteer healthy subjects (pressure, pulse, respiration, ECG, hemopoietic, hepatic and renal); assay type: in vivo
[8] = rat, in vivo, 10 mg/kg
Experimental: (§1) Sam^+.hso4^-.h2 so4 .2 ch3 c6 h4 so3 h and/or SAM^+.HSO4^-.H2 SO4.CH3 C6 H4 SO3 H. In order to indicatively determine how SAM is distributed in the tissues, S-Adenosilmethionine (Methyl C^14) was prepared. The distribution of this product in rats was studied by administering a dose of 10 mg/kg/e.v. equal to 24 μci of radioactive product. The specific activity of the product was 58 mCi/m moles. Parallel to this, an autoradiographic study was made on the mouse.
Distribution of SAM in some rat tissues.
The values are expressed as μgr/gr.

[9] = mouse, in vivo
Experimental: as §1

[10] = Hepatic steatosis in rats (Handler diet, acute alcoholic intoxication, carbon tetrachloride, bromobenzene); assay type: in vivo, rat
From the text: This was confirmed by successive pharmacological tests.

[11] = Hepatic phospholipids in rats after intoxication with CCl4; assay type: in vivo, rat; conditions: for Total phospholipids: average ± E.S. of 10 values
From the text: This was confirmed by successive pharmacological tests. […] Hepatic phospholipids in rats after intoxication with CCl4 and treatment with SAM.

[12] = Hepatic cholesterol degeneration in the rat (Ridout diet); assay type: in vivo; conditions: 3 weeks; for Fresh liver weight: cholesterol diet
Experimental: In studying the hepatoprotective activity we have used an experimental device which produces in the rat the so-called hepatic cholesterol degeneration (Ridout and Coll., Biochem. J. 52, 99, 1952).
In this method, by means of a suitable diet, a conspicuous increase in the total hepatic fats and hepatic cholesterol are obtained in the animals. The substances which act in the lipidic metabolism reduce or annul this increase.
The animals were divided into six groups. The first group was administered with a diet which was varied at will. The second group was administered with the basic diet of Ridout (20 g per rat per day); the other groups were administered with the same diet in the same doses but enriched with cholesterol to the extent of 0.2 g/rat/day. The treatment lasted 3 weeks.
The groups 4,5,6 were administered with SAM in the following doses: 1,2,5 mg/kg/i.p. per day.
At the end of 3 weeks all the animals were killed, the livers were withdrawn and the total fats (Best and Coll., Biochem. J. 40, 368, […]) and cholesterol (Sperry and Brand, J. Biol. Chem. 150, 315, 1943) were determined.

[13] = Edema by carragenine (acute inflammation); assay type: in vivo; conditions: orally 20-100 mg/kg and parenterally 10-20 mg/kg
From the text: (§2) Ot the various tests we shall mention the most classic, namely the edema by carragenine and by egg white as a test for acute inflammation; and granuloma by cotton […] arthritis by adjuvant as a test for chronic inflammation. […] The analgesia tests were in the form of the hot plate tests and stretching by acetic acid, and the Randal and Drlitto tests in the rat.

[14] = Edema by egg white (acute inflammation); assay type: in vivo; conditions: orally 20-100 mg/kg and parenterally 10-20 mg/kg
From the text: as §2

[15] = Granuloma by cotton peelets (chronic inflammation); assay type: in vivo; conditions: orally 20-100 mg/kg and parenterally 10-20 mg/kg
From the text: as §2

[16] = Arthritis by adjuvant (chronic inflammation); assay type: in vivo; conditions: orally 20-100 mg/kg and parenterally 10-20 mg/kg
From the text: as §2

[17] = Hot plate test (analgesia); conditions: rat, in vivo
From the text: as §2

[18] = Stretching by acetic acid (analgesia); conditions: rat, in vivo
From the text: as §2

[19] = Randal and Drlitto test (analgesia); assay type: in vivo; conditions: rat
From the text: as §2

[20] = Hexobarbital sleeping time in mice; assay type: in vivo, mouse
Experimental: A further aspect considered by us was the possible action of SAM on the sleeping time by barbiturates. For this purpose an experiment was made in which groups of mice received hexobarbital in a dose of 80 mg/kg/i.p. in accordance with the method of Holten and Larsen (Acta Pharmacol. […] (table).

[21] = Clinical: metabolism of lipids (hepatosteatosis, hyperdislipidemia); assay type: in vivo, human
From the text: Following the information gained from the pharmacological tests, the clinical tests were orientated on morbid affections in which the following appear primitively or secondarily altered: […]

[22] = Clinical: arteriosclerosis, hypoxydotic states, post-apoplectic syndromes; assay type: in vivo, human
[23] = Clinical: hypoprotidemias, disprotidemias, hepatopathias, cyrrotic states, malabsorption; assay type: in vivo, human; conditions: 20-200 mg per day
Experimental: 2. Hundreds of subjects were treated clinically affected with: secondary hypoprotidemias and disprotidemias; persistent and aggressive cronic hepatopathias; precyrrotic and cyrrotic states; malabsorption syndromes, protide dispersing syndromes.

[24] = Clinical: depressive forms (tests of Hamilton and Wittenberg); assay type: in vivo, human; conditions: 20-50 mg 3-4 times per day, 5-15 days, no other therapy
[25] = assay type: in vivo, human
[26] = Clinical: antalgic activity in neurological frameworks and cephalalgia; assay type: in vivo, human
Experimental: The antalgic activity of SAM was also tested in different subjects with different neurological frameworks: neuritis, polyneuritis, anthralgia, sciatica, radiocolitis, torticollis.

[27] = Clinical: disturbances of the sleeping-waking rhythm; assay type: in vivo, human; conditions: 10-30 mg orally, insomnia
rabbit [28] = conditions: in vivo, 40 mg/kg
cat = conditions: in vivo, 40 mg/kg
physchem [29] = conditions: dry state, percentage of SAM residue
From the text: as §3

[30] = hyperdislipidemia in the uncompensated stage
[31] = intermuscular, intravenous or oral

C[S+](CC[C@H](N)C(=O)O)C[C@H]1O[C@@H](n2cnc3c(N)ncnc32)[C@H](O)[C@@H]1O.Cc1ccc(S(=O)(=O)O)cc1.O=S(=O)(O)O.O=S(=O)([O-])O (stereo partly drawn) [di-sulphate mono-p.toluenesulphonate]
stability values compared with di-sulphate di-p.toluenesulphonate [1]: completely equivalent

N[C@@H](Cc1ccc(O)c(O)c1)C(=O)O [Levodopa, reference compound]
Parkinson tremor ([2]; Levodopa alone): cannot be modified

C[S+](CC[C@H](N)C(=O)O)C[C@H]1O[C@@H](n2cnc3c(N)ncnc32)[C@H](O)[C@@H]1O (stereo partly drawn) [Chloride]
percentage of SAM residue ([3]; 720 h): 20%

C[S+](CC[C@H](N)C(=O)O)C[C@H]1O[C@@H](n2cnc3c(N)ncnc32)[C@H](O)[C@@H]1O (stereo partly drawn) [SAM salt]
LD50 ([4]; ip): > 2500 mg/kg | LD50 ([4]; po, os): > 6000 mg/kg | toxicity [5]: absolutely free from acute toxicity, chronic toxicity, local intolerance or secondary effects

C[S+](CC[C@H](N)C(=O)O)C[C@H]1O[C@@H](n2cnc3c(N)ncnc32)[C@H](O)[C@@H]1O (stereo partly drawn) [Sulphate]
percentage of SAM residue ([3]; 720 h): 50% | percentage of SAM residue ([3]; 1440 h): 5%

C[S+](CC[C@H](N)C(=O)O)C[C@H]1O[C@@H](n2cnc3c(N)ncnc32)[C@H](O)[C@@H]1O (stereo partly drawn) [SAM, SAM disulphate di-p-toluenesulphonate]
hygroscopicity (physchem [6]; crystalline salt): not very hygroscopic | solubility (physchem [6]; water): > 200 mg/mL | tetratogenic actions or malformations (rabbits): no tetratogenic actions were encountered or any malformations in the embryons or terminal feti | tetratogenic actions or malformations (rats): no tetratogenic actions were encountered or any malformations in the embryons or terminal feti | local tolerability (rabbit [7]; intermuscular injection, repeated over 180 days): excellent | local tolerability (rabbit [7]; intravenous, marginal vein of the auricular pavillon, rabbit): excellent | electrocardiograph trace (PQ interval, ST section, extrasistol) (man; 30" to 20' from administration): does not show any variations | hemopoietic apparatus, hepatic and renal operation (man; man): no variations which were statistically significant from normal | minimum and maximum pressure, pulse and respiratory frequency (man; rapid intravenous or phleboclysis, 10-300 mg, 1 minute to 24 hours): does not show any variation from normal values | distribution to the tissues [8]: distributed very rapidly to all the tissues | distribution to the tissues [9]: distributed very rapidly to all the tissues | accumulation of lipids at the hepatocite level [10]: significantly reduced the accumulation of lipids | Total phospholipids ([11]; CCl4 + SAM 15 mg/kg/i.p.): 27.20 ± 1.25 mg/g | Total phospholipids ([11]; CCl4 + SAM 150 mg/kg/i.p.): 20.87 ± 0.42 mg/g | levels of phospholipids reduced after intoxication with CCl4 ([11]; rats, CCl4): favours the restoration of normal levels of phospholipids | protection from hepatic cholesterol degeneration ([12]; 5 mg/kg): completely protected | protection from hepatic cholesterol degeneration ([12]; 1-2 mg/kg/i.p.): poorly protected | Fresh liver weight ([12]; Batch IV, SAM 1 mg/kg/i.p. per day): 17 g | Fresh liver weight ([12]; Batch V, SAM 2 mg/kg/i.p. per day): 16 g | Fresh liver weight ([12]; Batch VI, SAM 5 mg/kg/i.p. per day): 16 g | antiinflammatory activity, edema by carragenine [13]: active | antiinflammatory activity, edema by egg white [14]: active | antiinflammatory activity, granuloma by cotton peelets [15]: active | antiinflammatory activity, arthritis by adjuvant [16]: active | analgesic activity, hot plate [17]: active | analgesic activity, stretching by acetic acid [18]: active | analgesic activity, Randal and Drlitto test [19]: active | prolonging the sleeping time induced by hexobarbital ([20]; 10 mg/kg/i.p.): active in prolonging the sleeping time | Sleeping time ([20]; SAM 10 mg/kg/i.p., hexobarbital 80 mg/kg/i.p.): 41.2 ± 5.8 min | hypocholesterolemising and hypolipemising action ([21]; about 20-30 mg administered 2-3 times per day): proportional to the dose | hepatic lipids in hepatosteatosis ([21]; bioptic examination, even after 60 days from the end of treatment): rapid fall in the hepatic lipids | altered β/α lipoproteic ratios [21, 30]: normalises the altered β/α lipoproteic ratios | total cholesterolemia and hypertriglyceridemia [21, 30]: marked fall | recovery of functions in clear hypoxydotic states ([22]; hypoxydotic states): very quick and statistically significant | symptomatology of arteriosclerosis ([22]; intramuscular, intravenous or phleboclysis, 20-40 mg 3-4 times per day): very favourable modification of the sumptomatology | improvement of the clinical framework in post-apoplectic syndromes ([22]; post-apoplectic syndromes): greater rapidity was found in the improvement of the clinical framework | subjective symptomology and general objective conditions [23]: often very important improvement | tests of hepatic functionality [23]: normalizing of all the tests of hepatic functionality | albumin amount [23, 31]: an increase in the albumin amount | altered percentage ratios between the electrophoretic fractions of the serum [23, 31]: tendency to normalise | total protidemia [23, 31]: statistically significant increase | remission of the main parameters for the diagnosis of depressive forms [24]: significant remission | Parkinson tremor ([2]; 10-40 mg per day with Levodopa): favourable modifications | akinesia and rigidity ([2]; 10-40 mg per day with Levodopa, versus Levodopa only): statistically more significant improvement | Levodopa side effects ([2]; 10-40 mg per day with Levodopa, nausea, vomit, inappetite, hypotension, asthenia, cephalea, hypersudoration, insomnia): significantly blocks | Levodopa-dependent psychic disturbances ([2]; with Levodopa): distinctly improves | activity in osteoarthritic forms ([25]; 30 mg twice a day i.m. or i.v., and 30-50 mg orally 4 times per day): active in all osteoarthritic forms treated | muscular spasm, limitation of movement, localised pain, rigidity ([25]; after 7 days of treatment, versus placebo): influenced in a statistically significant manner | therapeutic efficiency compared with indomethacin ([25]; double blind study): equal to indomethacin | concealed blood in the feces ([25]; human, in vivo): never showed any modification | gastric pyrosis ([25]; human, in vivo): No case | antalgic effect in neurological frameworks ([26]; 15 mg twice a day intermuscular or 30-50 mg 3-4 times per day orally): available and efficient from the first day of administration | recurring and resistant cephalalgia ([26]; orally in masticable tablets): Analogous results | altered sleeping-waking ratios [27]: considerably improve | percentage of SAM residue ([3]; 720 h): 100.1% | percentage of SAM residue ([3]; 1440 h): 99.9% | change in carotid pressure, cardiac and respiratory frequency or electrocardiac trace (rabbit [28]): does not cause any change | change in carotid pressure, cardiac and respiratory frequency or electrocardiac trace (cat): does not cause any change | remaining at 2880 h (physchem [29]): 100% | remaining at 4320 h (physchem [29]): 100%

C[S+](CC[C@H](N)C(=O)[O-])C[C@H]1O[C@@H](n2cnc3c(N)ncnc32)[C@H](O)[C@@H]1O (stereo partly drawn) [Ad-Met, reference compound]
Total phospholipids ([11]; CCl4 + Ad-Met 15 mg/kg/i.p.): 19.9 ± 0.92 mg/g
